Each structure is given as a SMILES string. Where a name gives a salt, the structure may show the parent alone.

T1 sequence (Q9Y5Y9 whole entry): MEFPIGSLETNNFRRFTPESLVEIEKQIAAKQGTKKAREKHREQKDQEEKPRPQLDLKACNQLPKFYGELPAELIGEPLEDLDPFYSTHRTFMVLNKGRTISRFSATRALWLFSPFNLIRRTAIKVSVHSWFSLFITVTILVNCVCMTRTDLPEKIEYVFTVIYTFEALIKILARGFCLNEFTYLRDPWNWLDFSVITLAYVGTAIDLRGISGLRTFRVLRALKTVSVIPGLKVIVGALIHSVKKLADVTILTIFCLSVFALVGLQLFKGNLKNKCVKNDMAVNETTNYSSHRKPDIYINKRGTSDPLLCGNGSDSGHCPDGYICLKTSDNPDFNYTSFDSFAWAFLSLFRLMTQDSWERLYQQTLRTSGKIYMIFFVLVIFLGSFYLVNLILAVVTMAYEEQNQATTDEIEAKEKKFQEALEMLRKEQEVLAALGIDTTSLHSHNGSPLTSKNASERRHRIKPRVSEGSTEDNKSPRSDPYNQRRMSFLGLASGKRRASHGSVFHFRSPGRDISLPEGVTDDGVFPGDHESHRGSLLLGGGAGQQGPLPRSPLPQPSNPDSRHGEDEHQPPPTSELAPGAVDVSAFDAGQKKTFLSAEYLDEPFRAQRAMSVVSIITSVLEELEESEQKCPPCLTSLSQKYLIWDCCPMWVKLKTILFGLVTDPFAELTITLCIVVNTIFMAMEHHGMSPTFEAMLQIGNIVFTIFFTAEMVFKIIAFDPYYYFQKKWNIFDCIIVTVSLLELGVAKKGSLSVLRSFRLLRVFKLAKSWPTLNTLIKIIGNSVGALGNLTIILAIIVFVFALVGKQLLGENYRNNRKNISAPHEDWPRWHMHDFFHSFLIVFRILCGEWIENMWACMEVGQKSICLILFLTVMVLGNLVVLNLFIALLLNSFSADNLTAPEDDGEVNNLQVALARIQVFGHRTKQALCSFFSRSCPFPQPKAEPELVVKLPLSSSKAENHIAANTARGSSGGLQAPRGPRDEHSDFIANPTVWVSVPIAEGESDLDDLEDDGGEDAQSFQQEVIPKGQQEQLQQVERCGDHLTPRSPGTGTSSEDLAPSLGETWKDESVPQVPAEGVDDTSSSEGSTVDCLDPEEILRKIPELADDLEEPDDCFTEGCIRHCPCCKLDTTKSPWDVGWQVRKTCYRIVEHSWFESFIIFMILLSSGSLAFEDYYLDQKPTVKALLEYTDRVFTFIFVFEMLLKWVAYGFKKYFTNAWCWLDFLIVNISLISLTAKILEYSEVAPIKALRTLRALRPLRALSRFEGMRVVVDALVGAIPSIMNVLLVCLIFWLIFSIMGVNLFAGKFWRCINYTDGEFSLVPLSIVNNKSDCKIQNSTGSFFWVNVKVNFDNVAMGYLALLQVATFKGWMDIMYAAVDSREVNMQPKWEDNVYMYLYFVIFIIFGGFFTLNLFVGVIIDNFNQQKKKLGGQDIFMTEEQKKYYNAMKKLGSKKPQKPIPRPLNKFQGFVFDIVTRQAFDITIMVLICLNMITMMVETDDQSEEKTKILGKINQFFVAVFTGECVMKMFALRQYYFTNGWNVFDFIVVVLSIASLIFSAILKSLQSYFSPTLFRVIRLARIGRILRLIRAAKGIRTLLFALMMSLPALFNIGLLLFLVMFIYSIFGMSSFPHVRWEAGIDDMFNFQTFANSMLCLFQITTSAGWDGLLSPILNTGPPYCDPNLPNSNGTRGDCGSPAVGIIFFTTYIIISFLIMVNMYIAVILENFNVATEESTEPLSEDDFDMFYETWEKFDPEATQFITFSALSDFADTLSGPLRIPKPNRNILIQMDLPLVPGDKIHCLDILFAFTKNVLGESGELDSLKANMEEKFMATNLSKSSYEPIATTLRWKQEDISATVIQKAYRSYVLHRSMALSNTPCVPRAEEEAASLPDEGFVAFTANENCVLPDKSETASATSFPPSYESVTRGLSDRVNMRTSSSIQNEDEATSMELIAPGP

The test addresses T1, human NaV1.8 (hNaV1.8) ion channel (Homo sapiens, UniProt Q9Y5Y9).
T1 construct: expressed in transfected cells
The test is described as follows: Inhibition of Human NaV1.8 stably expressed in SH-SY-5Y cells (membrane potential dye fluorescence assay). Format: cell-based. The following applies: SH-SY-5Y cells stably expressing hNaV1.8; FLIPR membrane potential dye; 10 μM pyrethroid, 250 nM TTX; test range 100 μM-0.05 μM; read-out: hNav1.8 IC50. Here is the method: Inhibition of Human NaV1.8 stably expressed in SH-SY-5Y cells
A SH-SY-5Y neuroblastoma cell line stably expressing the human NaV1.8 (hNaV1.8) ion channel was constructed. This cell line has been used to develop a medium to high throughput assay for determining the ability of test compounds to inhibit membrane depolarisation mediated via the hNaV1.8 channel.
SH-SY-5Y hNaV1.8 are grown in adherent monolayer culture using 50:50 Ham's F-12/EMEM tissue culture medium supplemented with 15% (v/v) foetal bovine serum; 2 mM L-glutamine, 1% NEAA and 600 μg·ml^−1 Geneticin sulphate. Cells are removed from the tissue culture flask using trypsin/EDTA and re-plated into black walled, clear bottom 96-well assay plates at 50,000 cells·well^−1 24 hours prior to assay.
On the day of assay the cell assay plates are washed to remove cell culture medium using a sodium free assay buffer (145 mM tetramethyl ammonium chloride; 2 mM calcium chloride; 0.8 mM magnesium chloride hexahydrate; 10 mM HEPES; 10 mM glucose; 5 mM potassium chloride, pH 7.4). Fluorescent membrane potential dye solution (FLIPR™ membrane potential dye, Molecular Devices Corporation), containing 10 μM of a pyrethroid to prevent channel inactivation and 250 nM tetrodotoxin (TTX) to reduce interference from TTX-sensitive sodium channels present in the cell line. Test compound, initially dissolved in dimethyl sulfoxide but further diluted in sodium free buffer, is added to achieve the final test concentration range of 100 μM-0.05 μM.
Cell plates are incubated for 30 minutes at room temperature to allow equilibration of dye and test compound. Plates are then transferred to a fluorescence plate reader for fluorescence measurement using an excitation wavelength of 530 nm whilst measuring fluorescence emission at 565 nm. […] Membrane depolarisation is registered by an increase in fluorescence emission at 565 nm.
The change in fluorescence seen in each test well upon the addition of sodium containing buffer is calculated relative to the baseline fluorescence for that well. This figure is then used for calculating the IC50 for each test compound.
In general, IC50 refers to the concentration needed to halve the response being measured. `CC(NC1CN(C(=O)c2ccc(Oc3ccccc3)cc2)C1)c1ccccc1` (centres unmarked) [Example 44, (4-Phenoxy-phenyl)-[3-(1-phenyl-ethylamino)-azetidin-1-yl]-methanone]: the concentration for half-maximal inhibition (IC50) stood at 730 nM. Take `O=C(Nc1ccc(Oc2ccc(F)cc2)cc1)N1CC(NC2CCCc3ccccc32)C1` (centres unmarked) [Example 19, 3-(1,2,3,4-Tetrahydro-naphthalen-1-ylamino)-azetidine-1-carboxylic acid [4-(4-fluoro-phenoxy)-phenyl]-amide]: the IC50 came to 190 nM. Take `CN(C1CN(C(=O)Nc2ccc(Oc3ccc(F)cc3)cc2)C1)C1CCc2cc(F)ccc21` (centres unmarked) [Example 37, 3-[(5-Fluoro-indan-1-yl)-methyl-amino]-azetidine-1-carboxylic acid [4-(4-fluoro-phenoxy)-phenyl]-amide]: the IC50 stood at 420 nM. As for `O=C(Nc1ccc(Oc2ccc(F)cc2)cc1)N1CC(NC2CCc3cc(Cl)ccc32)C1` (centres unmarked) [Example 138, 3-(5-Chloro-indan-1-ylamino)-azetidine-1-carboxylic acid [4-(4-fluoro-phenoxy)-phenyl]-amide methanesulfonate salt], the figure is 430 nM. The result for `Cc1cc(F)ccc1C(C)NC1CN(C(=O)Nc2ccc(Oc3ccc(F)cc3)cc2)C1` (centres unmarked) [Example 119, 3-[1-(4-Fluoro-2-methyl-phenyl)-ethylamino]-azetidine-1-carboxylic acid [4-(4-fluoro-phenoxy)-phenyl]-amide] reads 460 nM; that for `Cc1ccccc1C(C)N(C)C1CN(C(=O)Nc2ccc(Oc3ccccc3)cc2)C1` (centres unmarked) [Example 62, 3-[Methyl-(1-o-tolyl-ethyl)-amino]-azetidine-1-carboxylic acid (4-phenoxy-phenyl)-amide], 720 nM; that for `CC(NC1CN(C(=O)NC(c2ccc(F)cc2)c2ccc(F)cc2)C1)c1ccc(F)cc1` (centres unmarked) [Example 2, 3-[1-(4-Fluoro-phenyl)-ethylamino]-azetidine-1-carboxylic acid [bis-(4-fluoro-phenyl)-methyl]-amide], 2620 nM. As for `Cc1ccc(C(C)N(C)C2CN(C(=O)Nc3ccc(Oc4ccccc4)cc3)C2)c(C)c1` (centres unmarked) [Example 105, 3-{[1-(2,4-Dimethyl-phenyl)-ethyl]-methyl-amino}-azetidine-1-carboxylic acid (4-phenoxy-phenyl)-amide], the figure is 420 nM; as for `CC(NC1CN(C(=O)Nc2cccc(Oc3ccccc3)c2)C1)c1ccc(F)cc1` (centres unmarked) [Example 103, 3-[1-(4-Fluoro-phenyl)-ethylamino]-azetidine-1-carboxylic acid (3-phenoxy-phenyl)-amide], 730 nM; as for `CC(c1ccc(F)cc1)N(C)C1CN(C(=O)Nc2ccc(OC(F)(F)F)cc2)C1` (centres unmarked) [Example 98, 3-{[1-(4-Fluoro-phenyl)-ethyl]-methyl-amino}-azetidine-1-carboxylic acid (4-trifluoromethoxy-phenyl)-amide], 3190 nM.

On to `Cc1ccc(C(C)NC2CN(C(=O)Nc3ccc(Oc4ccccc4)cc3)C2)c(C)c1` (centres unmarked) [Example 101, 3-[1-(2,4-Dimethyl-phenyl)-ethylamino]-azetidine-1-carboxylic acid (4-phenoxy-phenyl)-amide], for which the IC50 amounted to 290 nM. The result for `O=C(Nc1ccc(Oc2ccccc2)cc1)N1CC(NCc2c(F)cccc2F)C1` [Example 128, 3-(2,6-Difluoro-benzylamino)-azetidine-1-carboxylic acid (4-phenoxy-phenyl)-amide] reads 830 nM; that for `O=C(Nc1ccc(Oc2ccc(F)cc2)cc1)N1CC(NC2CCc3cc(Cl)ccc32)C1` (centres unmarked) [Example 18, 3-(5-Chloro-indan-1-ylamino)-azetidine-1-carboxylic acid [4-(4-fluoro-phenoxy)-phenyl]-amide], 620 nM; that for `CC(NC1CN(C(=O)Nc2ccc(Oc3ccccc3)cc2)C1)c1ccc(Oc2ccccc2)cc1` (centres unmarked) [Example 77, 3-[1-(4-Phenoxy-phenyl)-ethylamino]-azetidine-1-carboxylic acid (4-phenoxy-phenyl)-amide], 1090 nM. As for `CC(NC1CN(C(=O)Nc2ccc(Oc3ccccc3)cc2)C1)c1ccccc1Cl` (centres unmarked) [Example 63, 3-[1-(2-Chloro-phenyl)-ethylamino]-azetidine-1-carboxylic acid (4-phenoxy-phenyl)-amide], the figure is 630 nM; as for `Cc1ccccc1C(C)NC1CN(C(=O)Nc2cccc(C(F)(F)F)c2)C1` (centres unmarked) [Example 75, 3-(1-o-Tolyl-ethylamino)-azetidine-1-carboxylic acid (3-trifluoromethyl-phenyl)-amide], 2260 nM. For the compound `CC(NC1CN(C(=O)Nc2ccc(Oc3ccc(F)cc3)cc2)C1)c1ccccc1Cl` (centres unmarked) [Example 94, 3-[1-(2-Chloro-phenyl)-ethylamino]-azetidine-1-carboxylic acid [4-(4-fluoro-phenoxy)-phenyl]-amide], the IC50 turned out to be 540 nM. In the case of `Cc1cccc(C(C)NC2CN(C(=O)Nc3ccc(Oc4ccccc4)cc3)C2)c1` (centres unmarked) [Example 118, 3-(1-m-Tolyl-ethylamino)-azetidine-1-carboxylic acid (4-phenoxy-phenyl)-amide], the IC50 was found to be 430 nM. The result for `C=CCOc1ccccc1CNC1CN(C(=O)Nc2ccc(OCc3ccccc3)cc2)C1` [Example 51, 3-(2-Allyloxy-benzylamino)-azetidine-1-carboxylic acid (4-benzyloxy-phenyl)-amide] reads 340 nM. Regarding `CC(NC1CN(C(=O)Nc2ccc(Oc3ccccc3)cc2)C1)c1ccc(OC(F)(F)F)cc1` (centres unmarked) [Example 70, 3-[1-(4-Trifluoromethoxy-phenyl)-ethylamino]-azetidine-1-carboxylic acid (4-phenoxy-phenyl)-amide], the IC50 was found to be 22100 nM. As for `O=C(Nc1ccc(Oc2ccc(F)cc2)nc1)N1CC(NC2CCc3cc(F)ccc32)C1` (centres unmarked) [Example 135, 3-(5-Fluoro-indan-1-ylamino)-azetidine-1-carboxylic acid [6-(4-fluoro-phenoxy)-pyridin-3-yl]-amide methanesulfonate salt], the figure is 2170 nM; as for `Cc1cc(F)ccc1C(C)NC1CN(C(=O)Nc2cccc(Oc3ccccc3)c2)C1` (centres unmarked) [Example 112, 3-[1-(4-Fluoro-2-methyl-phenyl)-ethylamino]-azetidine-1-carboxylic acid (3-phenoxy-phenyl)-amide], 660 nM. The result for `Cc1ccccc1C(C)NC1CN(C(=O)Nc2ccc(Oc3ccc(F)cc3)cc2)C1` (centres unmarked) [Example 108, 3-(1-o-Tolyl-ethylamino)-azetidine-1-carboxylic acid [4-(4-fluoro-phenoxy)-phenyl]-amide] reads 270 nM; that for `CC(c1ccc(F)cc1Cl)N(C)C1CN(C(=O)Nc2ccc(Oc3ccccc3)cc2)C1` (centres unmarked) [Example 60, 3-{[1-(2-Chloro-4-fluoro-phenyl)-ethyl]-methyl-amino}-azetidine-1-carboxylic acid (4-phenoxy-phenyl)-amide], 570 nM. The result for `O=C(Nc1ccc(Oc2ccccc2F)cc1)N1CC(NC2CCc3cc(Cl)ccc32)C1` (centres unmarked) [Example 133, 3-(5-Chloro-indan-1-ylamino)-azetidine-1-carboxylic acid [4-(2-fluoro-phenoxy)-phenyl]-amide] reads 1550 nM; that for `CC(NC1CN(C(=O)Nc2ccc(Oc3ccccc3)cc2)C1)c1ccc(F)cc1` (centres unmarked) [Example 79, 3-[1-(4-Fluoro-phenyl)-ethylamino]-azetidine-1-carboxylic acid (4-phenoxy-phenyl)-amide], 760 nM.

The values above are taken from US20100105651A1, “ANTAGONISTS OF SNS SODIUM CHANNELS” (priority 2005, published 2010).
